Experimental data reported in patent publication US10300052B2, “Methods for increasing CFTR activity” (THE UAB RESEARCH FOUNDATION, priority 2012, dated 2019).

Tested on: CFBE41o-cells without WT CFTR complementation (parental cells)
Experiment: Short-circuit current (Isc) in Ussing chambers, parental CFBE41o- cells without detectable CFTR expression
Format: cell-based, human
Details: ivacaftor 10 μM after amiloride 100 μM and forskolin 100 nM; parental cells without detectable CFTR expression (FIG. 1A)
Description: CFBE41o-cells complemented by stable expression of WT-CFTR (by a lentivirus promoter) are shown in comparison to CFBE41o-cells without WT CFTR complementation (parental cells). *P<0.05, **P<0.005, n=5/condition.
The CFTR potentiator ivacaftor was chosen as an exemplary CFTR activator. The activity of ivacaftor was examined in WT-CFTR expressing cells.
Short-circuit current (Isc) was measured under voltage clamp conditions using MC8 voltage clamps and P2300 Ussing chambers (Physiologic Instruments, San Diego, Calif.) as previously described (2). Monolayers were initially bathed on both sides with identical Ringer's solutions containing (in mM) 115 NaCl, 25 NaHCO3, 2.4 KH2PO4, 1.24 K2HPO4, 1.2 CaCl2, 1.2 MgC2, 10 D-glucose (pH 7.4). Bath solutions were vigorously stirred and gassed with 95%02:5% CO2. Short-circuit current measurements were obtained using an epithelial voltage clamp (Physiologic Instruments). A one-second three-mV pulse was imposed every 10 seconds to monitor resistance calculated using Ohm's law. Where indicated, the mucosal bathing solution was changed to a low Cl-solution containing 1.2 NaCl and 115 Na+ gluconate, and all other components as above. Amiloride (100 μM) was added to block residual Na+ current, followed by the agonists forskolin, ivacaftor, and ATP as indicated (minimum five-min observation at each concentration). […]

Structure (SMILES): CC(C)(C)c1cc(C(C)(C)C)c(NC(=O)c2c[nH]c3ccccc3c2=O)cc1O [ivacaftor]
- anion transport (Isc): no activity
